Consider 13 compounds from PubChem BioAssay (NCI).

Test systems include EKVX NSCLC; HS 578T breast; HT29 colon; NCI-H226 lung; NCI-H522 lung; OVCAR-3 ovarian; OVCAR-8 ovarian; RPMI-8226 leukemia; SK-MEL-2 melanoma; UACC-257 melanoma.
What all share (test): NCI anticancer screen, dose series, 48 h

Several values for one entry are separate records, joined by “and”; a condition that tells them apart may be missing. Equal entries are not always repeated.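 1) Cells in 96-well plates. 2) Compound, 48 h, 5 concentrations. 3) Linear interpolation between surrounding doses. 4) Unreached endpoint = highest concentration. GI50: concentration for 50% inhibition of growth. TGI: concentration producing complete growth inhibition.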

As to `COc1ccc(OC)c(-c2cc(C(=O)O)c3cc4ccccc4cc3n2)c1`, the TGI in the experiment on EKVX NSCLC, with HS 578T breast, in the experiment with HT29 colon, in the experiment with NCI-H226 lung, in the experiment with NCI-H522 lung and in the experiment with OVCAR-3 ovarian was over 100 µM throughout. Moreover, the TGI with OVCAR-8 ovarian, in the experiment with RPMI-8226 leukemia, in the experiment on SK-MEL-2 melanoma and with UACC-257 melanoma was over 100 µM each time.
As for `O=[N+]([O-])c1ccc(NN=C2c3ccccc3Cc3ccccc32)c([N+](=O)[O-])c1`, the TGI was over 100 µM in the experiment with EKVX NSCLC; over 80.4 µM in the experiment with HS 578T breast; 22.2 µM in the experiment on HT29 colon; over 100 µM in the experiment on NCI-H226 lung; 7.97 µM in the experiment with NCI-H522 lung; 5.19 µM in the experiment with OVCAR-3 ovarian. Further, the TGI in the experiment with OVCAR-8 ovarian is over 100 µM; in the experiment with RPMI-8226 leukemia, over 100 µM; with SK-MEL-2 melanoma it was over 43.4 µM; with UACC-257 melanoma it was over 100 µM.
For `CS(=O)(=O)N(CC(=O)O)Cc1ccccc1`, the TGI in the experiment on EKVX NSCLC, in the experiment with HS 578T breast, in the experiment on HT29 colon, in the experiment on NCI-H226 lung, with NCI-H522 lung and in the experiment on OVCAR-3 ovarian was over 100 µM throughout. The TGI in the experiment with OVCAR-8 ovarian, with RPMI-8226 leukemia, in the experiment with SK-MEL-2 melanoma and with UACC-257 melanoma was over 100 µM throughout.
Consider `CN1CCN(CCCN2c3ccccc3Sc3ccc(C(F)(F)F)cc32)CC1`, for which the GI50 in the experiment on EKVX NSCLC is 2.34 µM; with HS 578T breast it was 2.22 µM; in the experiment with HT29 colon, 1.53 µM; with NCI-H226 lung, 2.16 µM; with NCI-H522 lung, 1.87 µM and 4.05 µM and 13 µM; with OVCAR-3 ovarian, 1.93 µM and 6.26 µM and 13.8 µM. Besides, the GI50 in the experiment with OVCAR-8 ovarian was 1.7 µM; in the experiment with RPMI-8226 leukemia, 2.21 µM and 2.06 µM and 6.37 µM; in the experiment on SK-MEL-2 melanoma, 2.34 µM. Moreover, the TGI in the experiment on EKVX NSCLC is 10.8 µM and 27.9 µM and 28.3 µM; in the experiment with HS 578T breast it was 8.41 µM and 14.7 µM and 20.6 µM; in the experiment on HT29 colon it was 3.06 µM and 7.61 µM and 5.88 µM; in the experiment with NCI-H226 lung it was 6.41 µM and 32.8 µM and 32.2 µM; with NCI-H522 lung, 3.5 µM and 17.8 µM and 26.1 µM; with OVCAR-3 ovarian it was 3.76 µM and 20.4 µM and 27 µM. For the same compound, the TGI was 3.36 µM and 33.4 µM and 30.5 µM in the experiment on OVCAR-8 ovarian; 5.09 µM and 22.1 µM with RPMI-8226 leukemia; 4.26 µM and 15.4 µM and 15.6 µM with SK-MEL-2 melanoma; 3.73 µM and 3.75 µM and 6.55 µM in the experiment with UACC-257 melanoma.
With `CNC(=O)c1c(NC(=O)c2ccc(C(C)C)cc2)sc2c1CCC(=O)C2`, the GI50 is 0.719 µM in the experiment on EKVX NSCLC; 0.357 µM with HS 578T breast; 0.338 µM in the experiment on HT29 colon; 1.73 µM with NCI-H226 lung; 0.149 µM in the experiment on NCI-H522 lung; 0.423 µM in the experiment with OVCAR-3 ovarian. The GI50 in the experiment with OVCAR-8 ovarian is 0.338 µM; in the experiment with RPMI-8226 leukemia, 0.114 µM; with SK-MEL-2 melanoma, 1.6 µM; in the experiment on UACC-257 melanoma, 2.05 µM. Also, the TGI in the experiment with EKVX NSCLC was determined as 2.74 µM; in the experiment on HS 578T breast, 2.34 µM; in the experiment on HT29 colon, 1.6 µM; with NCI-H226 lung it was 5.29 µM; in the experiment with NCI-H522 lung, 1.04 µM; in the experiment on OVCAR-3 ovarian it was 1.57 µM. In addition, the TGI in the experiment on OVCAR-8 ovarian stood at 2.38 µM; in the experiment on RPMI-8226 leukemia, 0.675 µM; in the experiment with SK-MEL-2 melanoma it was 5.96 µM; in the experiment with UACC-257 melanoma it was 6.35 µM.
On to `O=C(c1ccncc1)N1CCN(C2=NS(=O)(=O)c3ccccc3N2c2ccccc2)CC1`, for which the GI50 in the experiment with EKVX NSCLC is 35 µM; with HS 578T breast, 29.3 µM; with HT29 colon it was 19 µM; in the experiment on NCI-H226 lung, 17.1 µM; in the experiment with NCI-H522 lung it was 5.98 µM; with OVCAR-3 ovarian it was 32.1 µM. In addition, the GI50 is 27.7 µM in the experiment on OVCAR-8 ovarian, 35.5 µM with RPMI-8226 leukemia, 28 µM in the experiment with SK-MEL-2 melanoma and 21.7 µM with UACC-257 melanoma. Besides, the TGI with EKVX NSCLC is over 100 µM; in the experiment on HS 578T breast, 81 µM; in the experiment with HT29 colon it was 57.8 µM; in the experiment with NCI-H226 lung it was 42.4 µM; in the experiment on NCI-H522 lung, 67 µM; in the experiment on OVCAR-3 ovarian, over 100 µM. For the same compound, the TGI with OVCAR-8 ovarian was over 100 µM; in the experiment on RPMI-8226 leukemia, 96.2 µM; in the experiment on SK-MEL-2 melanoma it was 65.7 µM; with UACC-257 melanoma it was 63.8 µM.
Consider `COc1cccc2cc(-c3nc(C4CCC(C(=O)O)CC4)n4ncnc(N)c34)[nH]c12` (stereo not drawn), for which the GI50 is 0.478 µM and 1.03 µM with EKVX NSCLC; 0.135 µM and 0.11 µM in the experiment on HS 578T breast; 1.2 µM and 2.52 µM in the experiment on HT29 colon; 0.347 µM and 0.397 µM with NCI-H226 lung; 0.0712 µM and 0.209 µM with NCI-H522 lung; 0.253 µM and 0.394 µM in the experiment on OVCAR-3 ovarian. Moreover, the GI50 is 0.371 µM and 0.642 µM in the experiment on OVCAR-8 ovarian; 0.185 µM and 0.303 µM in the experiment with RPMI-8226 leukemia; 0.108 µM and 0.347 µM with SK-MEL-2 melanoma; 0.198 µM and 0.378 µM in the experiment on UACC-257 melanoma. Further, the TGI was 5.13 µM and > 10 µM in the experiment on EKVX NSCLC; 0.627 µM and 0.979 µM in the experiment on HS 578T breast; 79.9 µM and > 10 µM with HT29 colon; over 7.79 µM in the experiment with NCI-H226 lung; 1.92 µM and > 8.47 µM in the experiment with NCI-H522 lung; 4.27 µM and > 7.87 µM in the experiment on OVCAR-3 ovarian. Also, the TGI was 3.78 µM and > 10 µM in the experiment on OVCAR-8 ovarian; 3.02 µM and > 5.2 µM in the experiment on RPMI-8226 leukemia; 0.633 µM and 2.23 µM with SK-MEL-2 melanoma; 2.1 µM and 4.19 µM in the experiment with UACC-257 melanoma.
As for `O=C(Nc1ccc(O)c(NS(=O)(=O)c2ccc(F)cc2)c1)c1ccc(-c2ccccc2)cc1`, the GI50 with EKVX NSCLC was 7.17 µM; with HS 578T breast it was 5.42 µM; in the experiment with HT29 colon it was 14.1 µM; with NCI-H226 lung, 4.96 µM; in the experiment with NCI-H522 lung it was 2.27 µM; in the experiment with OVCAR-3 ovarian it was 4.72 µM. Moreover, the GI50 in the experiment on OVCAR-8 ovarian is 5.32 µM; in the experiment with RPMI-8226 leukemia, 2.87 µM; with SK-MEL-2 melanoma, 15.1 µM; in the experiment on UACC-257 melanoma, 5.71 µM. Also, the TGI was determined as 26.4 µM in the experiment with EKVX NSCLC; 31.8 µM with HS 578T breast; 30.9 µM with HT29 colon; 23.8 µM with NCI-H226 lung; 8.7 µM in the experiment on NCI-H522 lung; 22.1 µM in the experiment with OVCAR-3 ovarian. Besides, the TGI is over 100 µM with OVCAR-8 ovarian, 18.2 µM in the experiment with RPMI-8226 leukemia, 46.2 µM with SK-MEL-2 melanoma and 46.6 µM in the experiment with UACC-257 melanoma.
Regarding `NCC(=O)NC(CO)C(=O)O` (stereo not drawn), the TGI in the experiment with EKVX NSCLC, in the experiment on HS 578T breast, with HT29 colon, in the experiment on NCI-H226 lung, in the experiment on NCI-H522 lung and in the experiment with OVCAR-3 ovarian was over 100 µM throughout. Also, the TGI in the experiment on OVCAR-8 ovarian, in the experiment with RPMI-8226 leukemia, with SK-MEL-2 melanoma and in the experiment with UACC-257 melanoma was over 100 µM each time.
On to `O=C(NCc1cccs1)OC1CC2CCC1C2` (stereo not drawn), for which the TGI in the experiment on EKVX NSCLC, with HS 578T breast, in the experiment with HT29 colon, in the experiment with NCI-H226 lung, in the experiment on NCI-H522 lung and in the experiment on OVCAR-3 ovarian was over 100 µM throughout. Moreover, the TGI with OVCAR-8 ovarian, with RPMI-8226 leukemia, in the experiment with SK-MEL-2 melanoma and in the experiment on UACC-257 melanoma was over 100 µM in each case.
`O=C(O)C1CCCCC1C(=O)Nc1nc2ccccc2[nH]1` (stereo not drawn): the TGI in the experiment on EKVX NSCLC, in the experiment on HS 578T breast, with HT29 colon, in the experiment with NCI-H226 lung, in the experiment on NCI-H522 lung and in the experiment on OVCAR-3 ovarian was over 100 µM throughout. In addition, the TGI in the experiment on OVCAR-8 ovarian, in the experiment with RPMI-8226 leukemia, in the experiment with SK-MEL-2 melanoma and with UACC-257 melanoma was over 100 µM throughout.
Regarding `COCO[C@@H]1CC2C=Nc3cc(OCc4ccccc4)c(OC)cc3C(=O)N2C1` (stereo partly drawn), the GI50 in the experiment with EKVX NSCLC was 1.09 µM; with HS 578T breast, 0.572 µM; in the experiment on HT29 colon, 0.4 µM; in the experiment with NCI-H226 lung, 2.88 µM; in the experiment on NCI-H522 lung, 0.152 µM; in the experiment on OVCAR-3 ovarian, 0.222 µM. Also, the GI50 with OVCAR-8 ovarian is 0.348 µM; in the experiment on RPMI-8226 leukemia it was 0.211 µM; with SK-MEL-2 melanoma, 0.49 µM; with UACC-257 melanoma, 1.09 µM. Also, the TGI was 4.85 µM in the experiment with EKVX NSCLC; 4.97 µM in the experiment with HS 578T breast; over 100 µM in the experiment with HT29 colon; 61.1 µM with NCI-H226 lung; 0.64 µM with NCI-H522 lung; 3.13 µM in the experiment with OVCAR-3 ovarian. Besides, the values for the TGI in the experiment on OVCAR-8 ovarian, in the experiment on RPMI-8226 leukemia and in the experiment on SK-MEL-2 melanoma were 6.52 µM, over 20.8 µM and 2.08 µM, respectively.
Turning to `CCNC(=O)c1ccc2c(c1)nc(-c1ccc(Cl)cc1)n2-c1cc(C(C)(C)C)[nH]n1`, the GI50 with EKVX NSCLC is 3.14 µM; in the experiment with HS 578T breast, 2.58 µM; in the experiment with HT29 colon it was 3.13 µM; in the experiment with NCI-H226 lung, 2.56 µM; in the experiment on NCI-H522 lung, 2.7 µM; with OVCAR-3 ovarian, 2.49 µM. Further, the GI50 in the experiment on OVCAR-8 ovarian is 3.06 µM; in the experiment with RPMI-8226 leukemia, 2.84 µM; with SK-MEL-2 melanoma it was 2.81 µM; in the experiment with UACC-257 melanoma, 3.59 µM. Also, the TGI was over 100 µM in the experiment on EKVX NSCLC; 7.6 µM in the experiment on HS 578T breast; 9.71 µM with HT29 colon; 9.24 µM with NCI-H226 lung; 9.6 µM with NCI-H522 lung; 7.77 µM in the experiment on OVCAR-3 ovarian. Moreover, the TGI came out at 13.4 µM with OVCAR-8 ovarian, 14.1 µM with RPMI-8226 leukemia, 8.15 µM with SK-MEL-2 melanoma and 30.5 µM in the experiment with UACC-257 melanoma.
